According to US20240092756A1, “METHODS AND COMPOSITION FOR KRAS MODIFICATIONS” (2692372 ONTARIO, INC., priority 2020, published 2024):

Legend:
KRAS G12C Lite = KRAS G12C Lite (Homo sapiens, UniProt P01116, C118S/C51S/C80S/G12C/S136P/S39C); assay: Differential scanning fluorimetry, KRAS G12C Lite; type: binding; design: key: Y: protein destabilized; N: protein not destabilized; conditions: 37° C. 5 hours incubation
Description: (§1) KRas proteins at 0.05 mg/ml in buffer Hepes, 147 mM NaCl, 2% glycerol, 5 mM MgCl2, 1 mM EDTA, 10 μM GDP, pH 8.0 were incubated in the presence desired concentration of compounds (5% DMSO final concentration) at 37° C. for 5 hours. After incubation, Sypro Oange to a final concentration of 5× was added to each sample. 20 μl aliquots of samples were transferred PCR tubes, sealed with caps, and run in a BioRad CFX96 RTPCR thermocycler. In the instrument, the samples were heated at a rate of 1° C./min from 25 to 90 degrees. Fluorescence readings were taken every 1 degree. The data generated was exported and analyzed using GraphPad-Prism software. The denaturation curves were fit using a Boltzmann sigmoidal equation to calculate melting temperatures (Tm).

KRAS G12C = KRAS G12C (Homo sapiens, UniProt P01116, G12C); assay: Differential scanning fluorimetry, KRAS G12C; type: binding; design: purchased; key: Y: protein destabilized; N: protein not destabilized; conditions: 37° C. 5 hours incubation
Description: as §1

[1] = molecular target: KRAS G12C Lite (SEQ ID NO:3) (Homo sapiens, UniProt P01116, C118S/C51S/C80S/G12C/S136P/S39C); assay: Intact mass analysis (LC-MS) of covalent modification, KRAS G12C Lite; type: binding; design: key to KRAS Lite Modification: a: KRAS Lite modified; conditions: intact mass spectrometry; covalent modification of KRAS G12C Lite
Method in brief: (§2)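 Protein (2 μM) reacted with compound (100 μM) for 24 h at 25° C in 20 mM HEPES pH 8, 150 mM NaCl, 2% DMSO, 2% glycerol, then analysed by intact-mass LC-MS (C4 column, positive-ion TOF). Up to 8 cysteine adducts allowed on deconvolution; adducts <2% of base peak ignored. % modification = adduct intensity over total protein plus adduct intensities.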

[2] = molecular target: T1, KRAS G12C (SEQ ID NO:1 or SEQ ID NO:2) (Homo sapiens, UniProt P01116, G12C); assay: Intact mass analysis (LC-MS) of covalent modification, KRAS G12C; type: binding; design: key to KRAS G12C Modification: b: KRAS G12C modified; conditions: intact mass spectrometry; covalent modification of KRAS G12C FL
T1 construct: purchased
Method in brief: as §2

[3] = tested on: phospho-ERK1/2 in MIA PaCa-2 cells (express KRAS G12C); assay: ERK1/2 phosphorylation in MIA PaCa-2 cells; type: cell-based, human; design: key: X: KRAS G12C bound and modulated in cells

SMILES	KRAS G12C Lite DSF ΔTm (KRAS G12C Lite)	KRAS G12C DSF ΔTm (KRAS G12C)	KRAS Lite Modification [1]	KRAS G12C Modification [2]	pERK - MIA PaCa-2 - (6 hours, 5 uM) [3]
Cc1ccnc(C(C)C)c1-n1c(=O)nc(NC2CN(S(=O)(=O)c3c(F)c(F)c(F)c(F)c3C(F)(F)F)C2)c2cc(F)c(-c3c(O)cccc3F)nc21 [Compound 15A, 6-fluoro-7-(2-fluoro-6-hydroxyphenyl)-1-(2-isopropyl-4-methylpyridin-3-yl)-4-((1-((2,3,4,5-tetrafluoro-6-(trifluoromethyl)phenyl)sulfonyl)azetidin-3-yl)amino)pyrido[2,3-d]pyrimidin-2(1H)-one]	Y	Y	a	b	X
Cc1ccnc(C(C)C)c1-n1c(=O)nc(NC2CN(S(=O)(=O)c3c(F)c(F)c(F)c(F)c3C(F)(F)F)C2)c2cc(F)c(Cl)nc21 [Compound 14A, 7-chloro-6-fluoro-1-(2-isopropyl-4-methylpyridin-3-yl)-4-((1-((2,3,4,5-tetrafluoro-6-(trifluoromethyl)phenyl)sulfonyl)azetidin-3-yl)amino)pyrido[2,3-d]pyrimidin-2(1H)-one]	Y	Y	a	b	X
